7 compounds from patent US12030883B2, “Hetero-tricyclic compounds as inhibitors of KRAS” (Incyte Corporation, priority 2021, dated 2024) can be followed below.

Assay [1] addresses T1, KRAS G12D (Homo sapiens, UniProt P01116, G12D). The experiment in a line: GDP-GTP exchange assay, KRAS G12D (bodipy-GDP/GppNHp, SOS1). In kind it is biochemical. To be noted: bodipy-loaded KRAS G12D 2.5 nM, 4 hours pre-incubation with inhibitor, SOS1 150 nM, GppNHp 500 uM; read-out: G12D_exchange (KRAS_G12D exchange assay IC50). The protocol:
(§1) The inhibitor potency of the exemplified compounds was determined in a fluorescence based guanine nucleotide exchange assay, which measures the exchange of bodipy-GDP (fluorescently labeled GDP) for GppNHp (Non-hydrolyzable GTP analog) to generate the active state of KRAS in the presence of SOS1 (guanine nucleotide exchange factor). Inhibitors were serially diluted in DMSO and a volume of 0.1 μL was transferred to the wells of a black low volume 384-well plate. Five μL/well volume of bodipy-loaded KRAS G12D or G12V diluted to a final concentration of 2.5 nM in assay buffer (25 mM Hepes pH 7.5, 50 mM NaCl, 10 mM MgCl2 and 0.01% Brij-35) was added to the plate and pre-incubated with inhibitor for 4 hours (G12D) or 3 hours (G12V) at ambient temperature. A cyclic peptide described to selectively bind G12D mutant (Sakamoto et al., BBRC 484.3 (2017), 605-611) or internal compounds with confirmed binding were used as positive controls in the assay plates. The exchange was initiated by the addition of a 5 μL/well volume containing 1 mM GppNHp and 300 nM SOS1 in assay buffer. The 10 μL/well reaction concentration of the bodipy-loaded KRAS G12D or G12V, GppNHp, and SOS1 were 2.5 nM, 500 uM, and 150 nM, respectively.
(§2) Either GraphPad prism or XLfit was used to analyze the data. The IC50 values were derived by fitting the data to a four parameter logistic equation producing a sigmoidal dose-response curve with a variable Hill coefficient. Prism equation: Y=Bottom+(Top−Bottom)/(1+10^((LogIC50-X)*Hill slope)); XLfit equation: Y=(A+((B−A)/(1+((X/C)^D)))) where X is the logarithm of inhibitor concentration and Y is the response.

In the next assay the target is KRAS G12V (Homo sapiens, UniProt P01116, G12V). Briefly: GDP-GTP exchange assay, KRAS G12V (bodipy-GDP/GppNHp, SOS1). In kind it is biochemical. Conditions: bodipy-loaded KRAS G12V 2.5 nM, 3 hours pre-incubation with inhibitor, SOS1 150 nM, GppNHp 500 uM; read-out: G12V_exchange (KRAS_G12V exchange assay IC50). The protocol:
as §1, §2

In assay [2] the target is T1, KRAS G12D. The experiment in a line: KRAS_G12D pERK assay (cellular pERK HTRF assay). In kind it is cell-based. Also noted: host or cells: A427 or HPAF-II. Conditions: KRAS G12D cells (A427, HPAF-II named in method), 2 hours incubation, Phospho-ERK 1/2 HTRF; read-out: G12D_PERK (KRAS_G12D pERK assay IC50). The protocol: MIA PaCa-2 (KRAS G12C; ATCC® CRL-1420), A427 (KRAS G12D; ATCC® HTB53), HPAF-II (KRAS G12D; ATCC® CRL-1997) and NCI-H838 (KRAS WT; ATCC® CRL-5844) cells are purchased from ATCC and maintained in RPMI 1640 media supplemented with 10% FBS (Gibco/Life Technologies). The cells are plated at 5000 cells per well (8 uL) into Greiner 384-well low volume, flat-bottom, tissue culture treated white plates and incubated overnight at 37° C., 5% CO2. The next morning, test compound stock solutions are diluted in media at 3× the final concentration, and 4 uL are added to the cells. The plate is mixed by gentle rotation for 30 seconds (250 rpm) at room temperature. The cells are incubated with the KRAS G12C and G12D compounds for 4 hours or 2 hours respectively at 37° C., 5% CO2.
4 uL of 4× lysis buffer with blocking reagent (1:25) (Cisbio) are added to each well and plates are rotated gently (300 rpm) for 30 minutes at room temperature. 4 uL per well of Cisbio anti Phospho-ERK 1/2 d2 is mixed with anti Phospho-ERK 1/2 Cryptate (1:1) are added to each well, mixed by rotation and incubated overnight in the dark at room temperature. Plates are read on the Pherastar plate reader at 665 nm and 620 nm wavelengths. IC50 determination is performed by fitting the curve of inhibitor percent inhibition versus the log of the inhibitor concentration using the GraphPad Prism 7 software.
For orientation: Time-resolved FRET reads energy transfer from a long-lived donor to a nearby acceptor.

T1 sequence (P01116 1-188 isoform P01116-2 G12D): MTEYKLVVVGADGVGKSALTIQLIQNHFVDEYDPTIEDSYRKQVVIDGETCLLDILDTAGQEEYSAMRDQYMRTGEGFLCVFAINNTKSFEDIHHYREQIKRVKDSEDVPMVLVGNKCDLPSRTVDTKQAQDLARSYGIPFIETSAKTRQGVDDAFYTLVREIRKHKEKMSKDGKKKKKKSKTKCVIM
KRAS G12V, sequence (P01116 1-188 isoform P01116-2 G12V): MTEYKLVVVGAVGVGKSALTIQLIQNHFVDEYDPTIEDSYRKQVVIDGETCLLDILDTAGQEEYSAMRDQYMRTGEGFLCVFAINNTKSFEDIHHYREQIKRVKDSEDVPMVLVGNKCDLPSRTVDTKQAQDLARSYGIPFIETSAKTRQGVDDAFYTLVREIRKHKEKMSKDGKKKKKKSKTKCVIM

Take `C[C@H](Oc1nc2c(F)c(-c3cccc4ccc(F)cc34)c(CCC#N)cc2c2c1NC(=O)CN2C1C2CNC1C2)[C@@H]1CCCN1C` (single isomer, unassigned) [Example 3a]: the IC50 on KRAS G12D [1], at KRAS G12V and on KRAS G12D [2] was at most 100 nM in each case.

Consider `Cc1cc2c(nc(O[C@@H](C)[C@@H]3CCCN3C)c3c(=O)c(Nc4cnn(C)c4)cn([C@H]4[C@H]5CN[C@@H]4C5)c32)c(F)c1-c1cccc2c1C(C#N)CCC2` (single isomer, unassigned) [Example 26b], for which the results for the IC50 at KRAS G12D [1], on KRAS G12V and at KRAS G12D [2] were at most 100 nM, 100 to 1000 nM and 5000 to 10000 nM, respectively.

For `CC1Cc2c(OC[C@@H]3CCCN3C)nc3c(F)c(-c4cc(O)cc5ccccc45)c(CCC#N)cc3c2N(C2C3CNC2C3)C1` (single isomer, unassigned) [Example 14a], the results for the IC50 at KRAS G12D [1], at KRAS G12V and at KRAS G12D [2] were at most 100 nM, at most 100 nM and 100 to 1000 nM, respectively.

Regarding `Cn1cnc(-c2nc3c(F)c(-c4cc(O)cc5ccccc45)c(CCC#N)cc3c3c2NC(=O)CN3C2C3CNC2C3)c1` (single isomer, unassigned) [Example 7a, 3-(1-((endo)-2-Azabicyclo[2.1.1]hexan-5-yl)-7-fluoro-8-(3-hydroxynaphthalen-1-yl)-5-(1-methyl-1H-imidazol-4-yl)-3-oxo-1,2,3,4-tetrahydropyrazino[2,3-c]quinolin-9-yl)propanenitrile], the values for the IC50 on KRAS G12D [1], at KRAS G12V and at KRAS G12D [2] were at most 100 nM, at most 100 nM and 100 to 1000 nM, respectively.

In the case of `N#CCCc1cc2c3c(c(OC[C@@]45CCCN4C[C@H](F)C5)nc2c(F)c1-c1cc(O)cc2ccccc12)NC(=O)CN3C1C2CNC1C2` (single isomer, unassigned) [Example 10a], the IC50 – broadly, the concentration at which inhibition is half-maximal – on KRAS G12D [1] is at most 100 nM; at KRAS G12V it was at most 100 nM; at KRAS G12D [2], 1000 to 5000 nM.

Turning to `N#CCCc1cc2c3c(cnc2c(F)c1-c1cc(O)cc2ccccc12)NC(=O)CN3[C@@H]1[C@@H]2CN[C@H]1C2` (racemic) [Example 20a, 3-(1-((endo)-2-Azabicyclo[2.1.1]hexan-5-yl)-7-fluoro-8-(3-hydroxynaphthalen-1-yl)-3-oxo-1,2,3,4-tetrahydropyrazino[2,3-c]quinolin-9-yl)propanenitrile], the IC50 on KRAS G12D [1] is at most 100 nM; on KRAS G12V, at most 100 nM; on KRAS G12D [2], 5000 to 10000 nM.

For `Cc1cc2c(nc(O[C@@H](C)[C@@H]3CCCN3C)c3c(=O)ccn([C@H]4[C@H]5CN[C@@H]4C5)c32)c(F)c1-c1cccc2c1C(C#N)CCC2` (stereo partly drawn) [Example 23, 8-(1-((1R,4R,5S)-2-azabicyclo[2.1.1]hexan-5-yl)-7-fluoro-9-methyl-5-((S)-1-((S)-1-methylpyrrolidin-2-yl)ethoxy)-4-oxo-1,4-dihydrobenzo[h][1,6]naphthyridin-8-yl)-1,2,3,4-tetrahydronaphthalene-1-carbonitrile], the IC50 at KRAS G12D [1], on KRAS G12V and on KRAS G12D [2] was at most 100 nM in each case.
